Experiments:
[1] = Cellular toxicity in the HIV cell-line (MT-4); type: cell-based, human; conditions: human
Protocol: (§1) Compounds of the invention were tested for their potency against wild type human immunodeficiency virus (HIV). Antiviral activity was evaluated using a cellular assay performed according to the following procedure. The human T-cell line MT4 was engineered with Green Fluorescent Protein (GFP) and a HIV-specific promoter, HIV-1 long terminal repeat (LTR). This cell line, designated MT4 LTR-EGFP, can be used for the in vitro evaluation of anti-HIV activity of investigational compounds. In HIV-1 infected cells, the Tat protein is produced, which upregulates the LTR promotor and eventually leads to stimulation of the GFP reporter production, allowing to measure ongoing HIV-infection fluorometrically. Effective concentration values such as 50% effective concentration (EC50) can be determined and are usually expressed in μM. An EC50 value is defined as the concentration of test compound that reduces the fluorescence of HIV-infected cells by 50%. Monitoring of HIV-1 infection was done using a scanning microscope. Image analysis allows very sensitive detection of viral infection. Measurements were done before cell necrosis, which usually takes place about five days after infection, in particular measurements were performed three days after infection. The column IIIB in the table list the EC50 values against the wild type strain IIIB.
Also the HIV activity is given (EC50 HIV (μM)) and the cellular toxicity in the HIV cell-line (CC50 (μM) (MT-4)).

[2] = tested on: wild type human immunodeficiency virus (HIV) strain IIIB; assay: HIV assay in MT4 LTR-EGFP cells; type: cell-based, HIV-1; conditions: Human immunodeficiency virus 1, IIIB, 72 h, three days after infection
Protocol: as §1

[3] = Cellular toxicity in Huh7-CMV-Luc replicon assay; type: cell-based; conditions: human, Huh7-CMV-Luc cells, three days incubation, Luc activity; read-out: CC50 (μM) (Huh-7)
Protocol: Cellular toxicity was determined in the Huh7-CMV-Luc replicon assay. Replicon cells (2500 cells/well), stably transformed with a luciferase reporter gene under control of the cytomegalovirus (CMV) constitutive promotor, were cultured in the presence or absence of test compound concentrations. After three days of incubation at 37° C. in a humidified 5% CO2 atmosphere, cell proliferation was quantified by measuring the Luc activity, and expressed as CC50 values (cytotoxicity, 50% inhibitory concentration of cell growth). Tests were performed in 384-well plates.

[4] = tested on: HCV replicon (Huh-7 luc/neo, NS3-NS5B of HCV type 1b); assay: HCV replicon assay (Huh-Luc, luciferase readout); type: cell-based; conditions: Huh-Luc cells, HCV type 1b replicon, three days incubation, luciferase activity
Description: The compounds of formula I were examined for activity in the inhibition of HCV RNA replication in a cellular assay aimed at identifying compounds that inhibit a HCV functional cellular replicating cell line, also known as HCV replicons. The cellular assay was based on a bicistronic expression construct, as described by Lohmann et al. (1999), Science vol. 285 pp. 110-113 with modifications described by Krieger et al. (2001), Journal of Virology 75: 4614-4624, in a multi-target screening strategy.
The assay utilized the stably transfected cell line Huh-7 luc/neo (hereafter referred to as Huh-Luc). This cell line harbors an RNA encoding a bicistronic expression construct comprising the wild type NS3-NS5B regions of HCV type 1b translated from an Internal Ribosome Entry Site (IRES) from encephalomyocarditis virus (EMCV), preceded by a reporter portion (FfL-luciferase), and a selectable marker portion (neoR, neomycine phosphotransferase). The construct is bordered by 5′ and 3′ NTRs (non-translated regions) from HCV type 1b. Continued culture of the replicon cells in the presence of G418 (neo^R) is dependent on the replication of the HCV RNA. The stably transfected replicon cells that express HCV RNA, which replicates autonomously and to high levels, encoding inter alia luciferase, were used for screening the antiviral compounds.
The replicon cells were plated in 384 well plates in the presence of the test and control compounds which were added in various concentrations. Following an incubation of three days, HCV replication was measured by assaying luciferase activity (using standard luciferase assay substrates and reagents and a Perkin Elmer ViewLux™ ultraHTS microplate imager). Replicon cells in the control cultures have high luciferase expression in the absence of any inhibitor. The inhibitory activity of the compound on luciferase activity was monitored on the Huh-Luc cells, enabling a dose-response curve for each test compound. EC50 values were then calculated, which value represents the amount of the compound required to decrease the level of detected luciferase activity by 50%, or more specifically, the ability of the genetically linked HCV replicon RNA to replicate.

SMILES | CC50 [1] [µM] | EC50 [2] [µM] | CC50 at 3 days [3] [µM] | EC50 [4] [µM] | EC50 ([4]; Hepatitis C virus, Huh-7, 72 h) [µM]
C[C@H](NP(=O)(OC[C@H]1O[C@@H](n2ccc(=O)[nH]c2=O)C2(CC2)[C@@H]1O)Oc1ccc(Cl)cc1)C(=O)OCc1ccccc1 (single isomer, unassigned) [Compound 7a] | > 50 | > 60 | 58.4 | 10.9 | –
C[C@H](NP(=O)(OC[C@H]1O[C@@H](n2ccc(=O)[nH]c2=O)C2(CC2)[C@@H]1O)Oc1cccc2ccccc12)C(=O)OCc1ccccc1 (stereo partly shown) [Compound 1] | > 32 | > 50 | > 98 | – | 2.8
Cc1cc(OP(=O)(N[C@@H](C)C(=O)OCc2ccccc2)OC[C@H]2O[C@@H](n3ccc(=O)[nH]c3=O)C3(CC3)[C@@H]2O)c(C(C)C)cc1Cl (stereo partly shown) [Compound 2] | > 32 | > 50 | > 32 | – | 14.3
CC(C)OC(=O)[C@H](C)NP(=O)(OC[C@H]1O[C@@H](n2ccc(=O)[nH]c2=O)C2(CC2)[C@@H]1O)Oc1ccccc1 (stereo partly shown) [Compound 3] | > 98 | > 98 | > 98 | – | 9.6
CC(C)(NP(=O)(OC[C@H]1O[C@@H](n2ccc(=O)[nH]c2=O)C2(CC2)[C@@H]1O)Oc1ccccc1)C(=O)OCc1ccccc1 (stereo partly shown) [Compound 4] | > 98 | > 98 | > 98 | – | 23.9
CCOC(=O)[C@H](C)NP(=O)(OC[C@H]1O[C@@H](n2ccc(=O)[nH]c2=O)C2(CC2)[C@@H]1O)Oc1ccccc1 (stereo partly shown) [Compound 5] | > 98 | > 90 | > 98 | – | 9.2
O=C(CNP(=O)(OC[C@H]1O[C@@H](n2ccc(=O)[nH]c2=O)C2(CC2)[C@@H]1O)Oc1cccc2ccccc12)OCc1ccccc1 (stereo partly shown) [Compound 6] | > 98 | > 90 | > 98 | – | 16.5
C[C@H](NP(=O)(OC[C@H]1O[C@@H](n2ccc(=O)[nH]c2=O)C2(CC2)[C@@H]1O)Oc1ccc(Cl)cc1)C(=O)OCc1ccccc1 (stereo partly shown) [Compound 7] | > 64 | > 90 | > 90 | – | 6.1
CCOC(=O)[C@H](C)NP(=O)(OC[C@H]1O[C@@H](n2ccc(=O)[nH]c2=O)C2(CC2)[C@@H]1O)Oc1ccc(Cl)cc1 (stereo partly shown) [Compound 8] | > 98 | > 98 | > 98 | – | 5.9
C[C@H](NP(=O)(OC[C@H]1O[C@@H](n2ccc(=O)[nH]c2=O)C2(CC2)[C@@H]1O)Oc1ccccc1)C(=O)OCc1ccccc1 (stereo partly shown) [Compound 9] | > 98 | > 85 | > 98 | – | 2.9
CCCC(CCC)COC(=O)[C@H](C)NP(=O)(OC[C@H]1O[C@@H](n2ccc(=O)[nH]c2=O)C2(CC2)[C@@H]1O)Oc1ccccc1 (stereo partly shown) [Compound 10] | 29 | > 60 | > 32 | – | 2.8
C[C@H](NP(=O)(OC[C@H]1O[C@@H](n2ccc(=O)[nH]c2=O)C2(CC2)[C@@H]1O)Oc1ccccc1)C(=O)OCC(C)(C)C (stereo partly shown) [Compound 11] | > 98 | > 98 | > 98 | – | 2.8
CCCCOC(=O)[C@H](C)NP(=O)(OC[C@H]1O[C@@H](n2ccc(=O)[nH]c2=O)C2(CC2)[C@@H]1O)Oc1ccccc1 (stereo partly shown) [Compound 12] | > 98 | > 98 | > 98 | – | 3.1

Reference: patent publication US8399429B2, “Uracyl cyclopropyl nucleotides” (Janssen Products, LP, priority 2008, dated 2013)
